Source: ChEMBL document CHEMBL1154496, “The pharmacophore of a peptoid VEGF receptor 2 antagonist includes both side chain and main chain residues” (Bioorg Med Chem Lett, 2008)
Calls of active or inactive are those of the source. The rule behind the calls is not given here. Square brackets hold non-standard residues; d marks the D form. Peptide text beside a SMILES is read from it. * marks the point of attachment. ξ: configuration not given here. X1 = O=C(O)c1cc(N2C(=O)CC(*)C2=O)ccc1-c1c2ccc(=O)cc-2oc2cc(O)ccc12; Gly(N-piperonyl) = O=C(O)CNCc1ccc2c(c1)OCO2; Nrpe = C[C@@H](NCC(=O)O)c1ccccc1; Nleu = CC(C)CNCC(=O)O; Nlys = NCCCCNCC(=O)O; ξC = NC(CS)C(=O)O

What follows are molecules tested against Vascular endothelial growth factor receptor 2 (Homo sapiens) (UniProt P35968) (assay: Binding affinity to VEGFR2 extracellular domain).
Sequence of Vascular endothelial growth factor receptor 2 (Homo sapiens) (P35968 whole entry, the tested form may be a part): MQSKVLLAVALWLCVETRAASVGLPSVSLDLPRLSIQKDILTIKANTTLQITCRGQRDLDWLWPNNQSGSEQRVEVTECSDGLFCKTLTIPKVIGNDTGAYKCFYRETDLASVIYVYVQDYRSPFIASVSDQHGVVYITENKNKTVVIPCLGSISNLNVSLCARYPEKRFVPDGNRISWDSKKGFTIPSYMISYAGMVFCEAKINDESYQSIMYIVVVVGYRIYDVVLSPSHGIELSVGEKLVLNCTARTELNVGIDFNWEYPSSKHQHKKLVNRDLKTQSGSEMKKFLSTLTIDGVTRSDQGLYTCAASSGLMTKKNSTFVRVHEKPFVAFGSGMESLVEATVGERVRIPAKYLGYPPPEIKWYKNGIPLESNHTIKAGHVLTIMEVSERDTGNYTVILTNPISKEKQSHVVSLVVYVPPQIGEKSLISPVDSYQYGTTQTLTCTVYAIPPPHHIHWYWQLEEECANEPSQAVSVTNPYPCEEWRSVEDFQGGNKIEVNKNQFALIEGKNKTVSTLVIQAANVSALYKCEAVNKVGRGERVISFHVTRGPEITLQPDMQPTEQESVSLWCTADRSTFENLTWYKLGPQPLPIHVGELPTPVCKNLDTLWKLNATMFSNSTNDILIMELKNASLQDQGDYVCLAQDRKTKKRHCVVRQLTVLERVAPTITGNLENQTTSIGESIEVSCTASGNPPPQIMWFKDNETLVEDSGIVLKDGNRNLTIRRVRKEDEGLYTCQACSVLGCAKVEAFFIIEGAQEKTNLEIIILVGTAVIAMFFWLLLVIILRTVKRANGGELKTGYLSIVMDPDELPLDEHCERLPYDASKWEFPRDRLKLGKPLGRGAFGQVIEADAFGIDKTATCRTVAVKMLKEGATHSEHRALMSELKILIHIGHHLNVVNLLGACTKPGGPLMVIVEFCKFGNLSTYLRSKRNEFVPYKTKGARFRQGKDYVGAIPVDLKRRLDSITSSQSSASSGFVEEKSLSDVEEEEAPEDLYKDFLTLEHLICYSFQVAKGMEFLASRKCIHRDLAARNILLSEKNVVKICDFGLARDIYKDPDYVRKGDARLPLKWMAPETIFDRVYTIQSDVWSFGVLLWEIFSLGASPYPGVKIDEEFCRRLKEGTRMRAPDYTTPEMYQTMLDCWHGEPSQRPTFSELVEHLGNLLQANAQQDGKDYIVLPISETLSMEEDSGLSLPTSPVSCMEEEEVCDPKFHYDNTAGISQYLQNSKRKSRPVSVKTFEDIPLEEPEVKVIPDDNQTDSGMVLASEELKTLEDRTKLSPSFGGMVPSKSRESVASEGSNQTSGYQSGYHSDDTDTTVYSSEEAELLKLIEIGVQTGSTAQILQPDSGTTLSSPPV

SMILES	Activity
CC(C)CN(CC(=O)N(CCCCN)CC(=O)N(CC(=O)NC(CSC1CC(=O)N(c2ccc(-c3c4ccc(=O)cc-4oc4cc(O)ccc34)c(C(=O)O)c2)C1=O)C(N)=O)[C@H](C)c1ccccc1)C(=O)CN (stereo partly drawn) (H-G[Nleu][Nlys][Nrpe][ξC](X1)-NH2)	inactive
CC(C)CN(CC(=O)N(CCCCN)CC(=O)N(CC(=O)N(CC(=O)N(CCCCN)CC(=O)N(CC(=O)N(CCCCN)CC(=O)N(CCCCN)CC(N)=O)CC(C)C)Cc1ccc2c(c1)OCO2)[C@H](C)c1ccccc1)C(=O)CNCCCCN (H-[Nlys][Nleu][Nlys][Nrpe][Gly(N-piperonyl)][Nlys][Nleu][Nlys][Nlys]-NH2)	Active
CC(C)CN(CC(=O)N(CCCCN)CC(=O)N(CC(=O)NCC(=O)NCC(=O)NCC(=O)NCC(=O)NCC(=O)NC(CSC1CC(=O)N(c2ccc(-c3c4ccc(=O)cc-4oc4cc(O)ccc34)c(C(=O)O)c2)C1=O)C(N)=O)[C@H](C)c1ccccc1)C(=O)CN (stereo partly drawn) (H-G[Nleu][Nlys][Nrpe]GGGGG[ξC](X1)-NH2)	Active
